Measured values from patent US20250263423A1, “INHIBITORS OF RAS ONCOPROTEINS” (BridGene Biosciences, Inc., priority 2021, published 2025).

target: Kras G12D (Homo sapiens (Human), UniProt P01116, G12D); test: HTRF-based nucleotide exchange assay detecting GTP binding to K-Ras; type: biochemical; settings: SOS1 (aa 564-1049), fluorescently labelled GTP, compound incubated 1 h at RT
Procedure: Kras G12D was mixed with a-GST Tb antibody (1.5× solution) and 10 uL was delivered to reaction wells. A mixture of Kras G12D/aGST-Tb Ab/compound mixture was incubated for 1 h at RT. A 3× solution of SOS1 (aa 564-1049) and fluorescently labelled GTP* was prepared in reaction buffer and 5 μL of SOS1/GTP* solution was added to reaction well to initiate the exchange reaction. An IC50 was determined using a sigmoidal dose response (variable slope) equation. Note: Assay IC50 data are designated within the following ranges: A: ≤10 nM, B: >10 nM to ≤1000 nM, C: >1000 nM

Kras G12D, sequence (P01116-2 other isoform, or with tags, fused parts or gaps G12D): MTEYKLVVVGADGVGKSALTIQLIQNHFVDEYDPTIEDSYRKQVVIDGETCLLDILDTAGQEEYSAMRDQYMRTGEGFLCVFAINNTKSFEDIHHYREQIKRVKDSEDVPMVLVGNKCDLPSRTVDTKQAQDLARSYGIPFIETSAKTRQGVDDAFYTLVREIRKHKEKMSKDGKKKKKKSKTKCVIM

Row | Structure (SMILES) | IC50
1 | C#Cc1cccc2cc(O)cc(-c3ncc4c(N5CC6CCCC(C5)N6)nc(OCC56CCCN5CCC6)nc4c3F)c12 [Example 7, 4-(4-(3,9-diazabicyclo[3.3.1]nonan-3-yl)-8-fluoro-2-((tetrahydro-1H-pyrrolizin-7a(5H)-yl)methoxy)pyrido[4,3-d]pyrimidin-7-yl)-5-ethynylnaphthalen-2-ol] | ≤ 10 nM
2 | C#Cc1cccc2cc(O)cc(-c3ncc4c(N5CC6CC(C5)N6)nc(OCC56CCCN5CCC6)nc4c3F)c12 [Example 8, 4-[4-(3,6-diazabicyclo[3.1.1]heptan-3-yl)-8-fluoro-2-(1,2,3,5,6,7-hexahydropyrrolizin-8-ylmethoxy)pyrido[4,3-d]pyrimidin-7-yl]-5-ethynyl-naphthalen-2-ol] | ≤ 10 nM
3 | Fc1c(-c2cccc3cccc(Cl)c23)ncc2c(N3CC4CNCC4C3)nc(OCC34CCCN3CCC4)nc12 [Example 5, 4-[(3aR, 6aS)-2,3,3a,4,6,6a-hexahydro-1H-pyrrolo[3,4-c]pyrrol-5-yl]-7-(8-chloro-1-naphthyl)-8-fluoro-2-(1,2,3,5,6,7-hexahydropyrrolizin-8-ylmethoxy)pyrido[4,3-d]pyrimidine] | > 1000 nM
4 | C[C@H]1CN(c2nc(OCC34CCCN3CCC4)nc3c(F)c(-c4cccc5cccc(Cl)c45)ncc23)C[C@H](C)N1 [Example 2, 7-(8-chloronaphthalen-1-yl)-4-((3S,5S)-3,5-dimethylpiperazin-1-yl)-8-fluoro-2-((tetrahydro-1H-pyrrolizin-7a(5H)-yl)methoxy)pyrido[4,3-d]pyrimidine] | 10 to 1000 nM
5 | C#Cc1cccc2cc(O)cc(-c3ncc4c(N5CC6COCC(C5)N6)nc(OCC56CCCN5CCC6)nc4c3F)c12 [Example 4, 4-(4-(3-oxa-7,9-diazabicyclo[3.3.1]nonan-7-yl)-8-fluoro-2-((tetrahydro-1H-pyrrolizin-7a(5H)-yl)methoxy)pyrido[4,3-d]pyrimidin-7-yl)-5-ethynylnaphthalen-2-ol] | ≤ 10 nM
6 | C[C@@H]1CN(c2nc(OCC34CCCN3CCC4)nc3c(F)c(-c4cccc5cccc(Cl)c45)ncc23)C[C@H](C)N1 [Example 1, 7-(8-chloronaphthalen-1-yl)-4-((3R,5S)-3,5-dimethylpiperazin-1-yl)-8-fluoro-2-((tetrahydro-1H-pyrrolizin-7a(5H)-yl)methoxy)pyrido[4,3-d]pyrimidine] | > 1000 nM
7 | Fc1c(-c2cccc3cccc(Cl)c23)ncc2c(N3C[C@H]4CC[C@@H](C3)N4)nc(OCC34CCCN3CCC4)nc12 [Example 3, 4-((1R,5S)-3,8-diazabicyclo[3.2.1]octan-3-yl)-7-(8-chloronaphthalen-1-yl)-8-fluoro-2-((tetrahydro-1H-pyrrolizin-7a(5H)-yl)methoxy)pyrido[4,3-d]pyrimidine] | ≤ 10 nM
8 | C#Cc1cccc2cc(O)cc(-c3ncc4c(N5C[C@@H]6C[C@H]5CN6)nc(OCC56CCCN5CCC6)nc4c3F)c12 (stereo in doubt) [Example 6, 4-(4-((1S,4S)-2,5-diazabicyclo[2.2.1]heptan-2-yl)-8-fluoro-2-((tetrahydro-1H-pyrrolizin-7a(5H)-yl)methoxy)pyrido[4,3-d]pyrimidin-7-yl)-5-ethynylnaphthalen-2-ol] | ≤ 10 nM
